Laboratory results as given in PubChem BioAssay (NCI).
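Where inhibition never reached the appropriate level, the endpoint shown equals the highest concentration tested. Otherwise, values were interpolated linearly from a five-concentration, 48-hour dose response in 96-well plates. GI50 is the concentration that inhibits growth by half. TGI denotes the concentration required for complete inhibition of growth.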

Key:
Experiment in all cases: inhibition of tumour cell growth, NCI panel, 48 h
OVCAR-8 ovarian = tested on: OVCAR-8 ovarian
A498 renal = tested on: A498 renal
SNB-19 CNS = tested on: SNB-19 CNS
HCT-15 colon = tested on: HCT-15 colon
HOP-92 NSCLC = tested on: HOP-92 NSCLC
CAKI-1 renal = tested on: CAKI-1 renal
CCRF-CEM leukemia = tested on: CCRF-CEM leukemia
HCT-116 colon = tested on: HCT-116 colon
SF-268 CNS = tested on: SF-268 CNS
UACC-257 melanoma = tested on: UACC-257 melanoma

Compound	GI50 (OVCAR-8 ovarian) [µM]	TGI (OVCAR-8 ovarian) [µM]	GI50 (A498 renal) [µM]	TGI (A498 renal) [µM]	GI50 (SNB-19 CNS) [µM]	TGI (SNB-19 CNS) [µM]	GI50 (HCT-15 colon) [µM]	TGI (HCT-15 colon) [µM]	GI50 (HOP-92 NSCLC) [µM]	TGI (HOP-92 NSCLC) [µM]	GI50 (CAKI-1 renal) [µM]	TGI (CAKI-1 renal) [µM]	TGI (CCRF-CEM leukemia) [µM]	TGI (HCT-116 colon) [µM]	TGI (SF-268 CNS) [µM]	TGI (UACC-257 melanoma) [µM]
CC(C)(C)c1cc(-c2nc3ccc(N4CCN(CCO)CC4)cc3[nH]2)cc(C(C)(C)C)c1O	6.53	> 100	6.1	> 100	3.48	> 100	1.55	3.05	1.41	4.44	1.97	4.45				
CCCC[C@H]1C(=O)O[C@H](C)[C@H](NC(=O)c2cccc(NC=O)c2OC)C(=O)O[C@@H](C)[C@@H]1OC(=O)CC(C)C (tested in a mixture with another compound)		34.7		22.4		22.3		51.2		27.2		31	24.4	28.4	38.5	38.6
COc1cc(C2C(=O)C(Cl)N2Nc2nc(C)cc(=O)[nH]2)cc(OC)c1OC (centres undefined)		> 100				> 100		31.9		37.3				49.7	> 100	> 100
O=C(NC(Cc1ccc(Cl)cc1)C(=O)O)c1ccc(I)cc1 (centres undefined)		> 100		> 100		> 100		> 100		> 100		> 100	> 100	> 100	> 100	> 100
Cc1ccc2c3c1[C@@H]1O[C@@H]1c1cccc(c1-3)[C@@H]1O[C@H]21		40.5		43.6		49.9		36.7		36.8		32.9		27.7	34.1	33
COc1ccc(N=Nc2c(N)nn(C)c2N)cc1		> 100		> 100		> 100		> 100		> 100		> 100	> 100	> 100	> 100	> 100
C/C(=C\C(=N\NC(=N)N)c1ccccc1)c1ccccc1		4.83				3.49		14.7		3.22		1.59	1.8	1.1	2.3	
O=c1[nH]c(=O)n(CCOCP(=O)(O)O)nc1Br		> 100		> 100		> 100		> 100		> 100		> 100	> 100		> 100	
